Assay [1] deals with Chromobacterium violaceum. Nature of the assay: Inhibition of Quorum sensing system in Chromobacterium violaceum CV026 after 24 hrs by agar-well diffusion method. On the technique in general: A growth-free zone around the sample is the usual read-out of agar diffusion tests.
Assay [2] deals with Pseudomonas aeruginosa. Nature of the assay: Decrease in rhIR gene expression in Pseudomonas aeruginosa PAO1 at 400 uM by RT-PCR analysis. It counts as functional, organism-based.
The subject of assay [3] is Pseudomonas aeruginosa PAO1. Nature of the assay: Inhibition of Quorum sensing system in Pseudomonas aeruginosa PAO1 assessed as inhibition of swarming motility at 100 uM after 16 hrs.
Assay [4] relates to Pseudomonas aeruginosa. As to the kind of experiment: Decrease in lasI gene expression in Pseudomonas aeruginosa PAO1 at 400 uM by RT-PCR analysis relative to control. It counts as functional.
In assay [5] the test system is Chromobacterium violaceum. Nature of the assay: Inhibition of Quorum sensing system in Chromobacterium violaceum CV026 assessed as inhibition of violacein synthesis at 25 to 150 uM after 18 hrs by spectrophotometric assay.
For assay [6], the system named is Pseudomonas aeruginosa PAO1. Nature of the assay: Inhibition of Quorum sensing system in Pseudomonas aeruginosa PAO1 assessed as inhibition of pyocyanin production at sub-MIC concentration after 16 to 18 hrs by spectrophotometric assay.
In assay [7] the test system is Chromobacterium violaceum. As to the kind of experiment: Antibacterial activity in Chromobacterium violaceum CV026 for 16 hrs. It counts as functional. The following applies: CV026, 16 h.
Assay [8] deals with Pseudomonas aeruginosa. Nature of the assay: Antibacterial activity in Pseudomonas aeruginosa PAO1 at 400 uM measured every 2 hrs for 24 hrs by microplate reader analysis. In kind it is functional, organism-based.
For assay [9], the system named is Chromobacterium violaceum. As to the kind of experiment: Inhibition of Quorum sensing system in Chromobacterium violaceum CV026 at 1 to 4 mg/ml after 24 hrs by agar-well diffusion method.
Assay [10] deals with Pseudomonas aeruginosa. As to the kind of experiment: Decrease in lasR gene expression in Pseudomonas aeruginosa PAO1 at 400 uM by RT-PCR analysis. In kind it is functional, organism-based.
Assay [11] relates to Chromobacterium violaceum. Nature of the assay: Inhibition of Quorum sensing system in Chromobacterium violaceum CV026 assessed as inhibition of violacein synthesis at 150 uM after 18 hrs by spectrophotometric assay.
Assay [12] has as its system Pseudomonas aeruginosa. Nature of the assay: Antibacterial activity in Pseudomonas aeruginosa PAO1 for 16 hrs. It counts as functional. The following applies: PAO1, 16 h.
Assay [13] relates to Pseudomonas aeruginosa. As to the kind of experiment: Decrease in rhII gene expression in Pseudomonas aeruginosa PAO1 at 400 uM by RT-PCR analysis. It counts as functional, organism-based.
The subject of assay [14] is Pseudomonas aeruginosa PAO1. Nature of the assay: Inhibition of Quorum sensing system in Pseudomonas aeruginosa PAO1 assessed as inhibition of pyocyanin production at 400 uM after 16 to 18 hrs by spectrophotometric assay.
For assay [15], the system named is Chromobacterium violaceum. Nature of the assay: Inhibition of Quorum sensing system in Chromobacterium violaceum CV026 assessed as inhibition of violacein synthesis at 125 uM after 18 hrs by spectrophotometric assay.
The test system of assay [16] is Chromobacterium violaceum. Nature of the assay: Inhibition of Quorum sensing system in Chromobacterium violaceum CV026 assessed as violacein synthesis at 25 and 50 uM after 18 hrs by spectrophotometric assay.
Assay [17] deals with Chromobacterium violaceum. Nature of the assay: Inhibition of Quorum sensing system in Chromobacterium violaceum CV026 assessed as inhibition of violacein synthesis at 75 uM after 18 hrs by spectrophotometric assay.
For assay [18], the system named is Chromobacterium violaceum. Nature of the assay: Antibacterial activity in Chromobacterium violaceum CV026 at 100 ug/well by agar-well diffusion method. It counts as functional, organism-based.
The subject of assay [19] is Chromobacterium violaceum. Nature of the assay: Inhibition of Quorum sensing system in Chromobacterium violaceum assessed as inhibition of violacein synthesis. The following applies: concentration not given here.
The test system of assay [20] is Chromobacterium violaceum. Nature of the assay: Antibacterial activity in Chromobacterium violaceum CV026 at >50 ug/well by agar-well diffusion method. It counts as functional, organism-based.
Assay [21] has as its system Chromobacterium violaceum. As to the kind of experiment: Inhibition of Quorum sensing system in Chromobacterium violaceum CV026 assessed as inhibition of violacein synthesis at >100 uM after 18 hrs by spectrophotometric assay.
Assay [22] deals with Chromobacterium violaceum. Nature of the assay: Antibacterial activity in Chromobacterium violaceum CV026 at 0.6 mg/ml by agar-well diffusion method. In kind it is functional, organism-based.

≈ marks a conversion by molar mass, not a printed value. Calls of active or inactive are those of the source. The calls are words filed in the database; no cut-off is given here.

As usually defined, the inhibition is how much of the control response was suppressed. On to `COc1c(O)cc2ccc3c(OC)c(O)ccc3c2c1OC`, for which the inhibition entry in assay [1] was “inactive”.

Turning to `COc1cc(/C=C/c2ccc(O)cc2)cc(OC)c1`, the inhibition result in assay [1] was “inactive”.

For the molecule `COc1cc2ccc3c(OC)c(O)ccc3c2c(OC)c1OC`, the inhibition entry in [1] is “inactive”.

With `COc1ccc(CCc2cc(O)cc(O)c2)cc1OC`, in [1], the inhibition result was “inactive”.

Take `COc1ccc(CCc2cc(OC)c(O)c(OC)c2)cc1O`: the inhibition result in assay [1] is “inactive”.

With `COc1ccc(CCc2cc(OC)c(OC)c(OC)c2)cc1O`, the inhibition result in [1] was “inactive”.

`COc1ccc(CCc2cc(OC)c(OC)c(OC)c2)cc1OC`: the inhibition entry in assay [1] is “inactive”.

In general, MIC refers to the lowest concentration found to suppress growth. A lower MIC goes with greater potency. In the case of `Oc1cc(O)cc(/C=C/c2ccc(O)cc2O)c1` [OXYRESVERATROL], the inhibition result (in the assay with Pseudomonas aeruginosa [2]; in [3]; in assay [5]; in assay [6]; in [9]; in the assay with Pseudomonas aeruginosa [10]) was “Active” each time. For the same molecule, the inhibition entry in the assay on Pseudomonas aeruginosa [13] was “Active”. The “fold change (FC)” value in the assay on Pseudomonas aeruginosa [4] is 3. The minimal inhibitory concentration (MIC) in assay [7] is 250 µg/mL (≈ 1020 µM); in the assay with Pseudomonas aeruginosa [12], more than 1000 µg/mL. Also, the result in the assay on Pseudomonas aeruginosa [8] was inactive. Further, the figures for the inhibition in [11] and in assay [14] were 86% and 50.2%, respectively.

In the case of `Oc1cc(O)cc(/C=C/c2ccc(O)c(O)c2)c1` [PICEATANNOL], the inhibition amounted to 46% in [15], 73% in assay [11] and 37.1% in [14]. Moreover, in [16], the inhibition entry is “inactive”. Moreover, the inhibition entry (with Pseudomonas aeruginosa [2]; in assay [3]; in [6]; in [17]; in [9]; in the assay with Pseudomonas aeruginosa [10]) was “Active” throughout. Also, the inhibition result in the assay with Pseudomonas aeruginosa [13] is “Active”. Further, the “fold change (FC)” value with Pseudomonas aeruginosa [4] is 5. The MIC in [7] was 250 µg/mL (≈ 1020 µM); in the assay on Pseudomonas aeruginosa [12] it was more than 1000 µg/mL. Further, the outcome in [18] was Active. Also, the result in the assay with Pseudomonas aeruginosa [8] was inactive.

Take `Oc1ccc(/C=C/c2cc(O)cc(O)c2)cc1` [RESVERATROL]: the inhibition in assay [19] was 70%; in [21], more than 80%; in assay [14] it was 59.3%. Moreover, the inhibition entry (with Pseudomonas aeruginosa [2]; in [3]; in assay [5]; in [6]; in [9]; with Pseudomonas aeruginosa [10]) was “Active” throughout. In addition, the inhibition result in the assay on Pseudomonas aeruginosa [13] is “Active”. Further, the “fold change (FC)” value in the assay with Pseudomonas aeruginosa [4] worked out at 2. Besides, the outcome in assay [20] was Active. For the same molecule, the results for the minimal inhibitory concentration (MIC) (in [7]; against Pseudomonas aeruginosa [12]) were 150 µg/mL (≈ 657 µM) and more than 1000 µg/mL, respectively. Further, the result with Pseudomonas aeruginosa [8] was inactive.

As for GENTAMICIN, in assay [22], the outcome was Active.

The values are drawn from ChEMBL document CHEMBL3632464, “The quorum-sensing inhibiting effects of stilbenoids and their potential structure-activity relationship” (2015).
